≈ marks a conversion by molar mass, not a printed value.
What was measured:
[1] = system: Moraxella catarrhalis; assay: In vitro antibacterial activity against isolated Moraxella catarrhalis RA21; type: functional
[2] = target: T1, Peptide deformylase (Escherichia coli, UniProt Q9JN24); assay: Inhibitory activity against isolated Escherichia coli peptidyl deformylase (PDF) enzyme containing iron.
T1 sequence (Q9JN24 whole entry): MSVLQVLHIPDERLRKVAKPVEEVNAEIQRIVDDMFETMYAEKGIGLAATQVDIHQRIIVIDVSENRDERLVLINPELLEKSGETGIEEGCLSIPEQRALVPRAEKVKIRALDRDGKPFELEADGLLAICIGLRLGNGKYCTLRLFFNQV

[3] = system: Escherichia coli; assay: In vitro antibacterial activity against isolated Escherichia coli DC2; type: functional
[4] = Inhibitory activity against PDF isolated from Bacillus subtilis
[5] = system: Haemophilus influenzae; assay: In vitro antibacterial activity against Haemophilus influenzae 11.; type: functional
[6] = target: Angiotensin-converting enzyme (Homo sapiens, UniProt P12821)
Sequence of Angiotensin-converting enzyme (P12821 whole entry): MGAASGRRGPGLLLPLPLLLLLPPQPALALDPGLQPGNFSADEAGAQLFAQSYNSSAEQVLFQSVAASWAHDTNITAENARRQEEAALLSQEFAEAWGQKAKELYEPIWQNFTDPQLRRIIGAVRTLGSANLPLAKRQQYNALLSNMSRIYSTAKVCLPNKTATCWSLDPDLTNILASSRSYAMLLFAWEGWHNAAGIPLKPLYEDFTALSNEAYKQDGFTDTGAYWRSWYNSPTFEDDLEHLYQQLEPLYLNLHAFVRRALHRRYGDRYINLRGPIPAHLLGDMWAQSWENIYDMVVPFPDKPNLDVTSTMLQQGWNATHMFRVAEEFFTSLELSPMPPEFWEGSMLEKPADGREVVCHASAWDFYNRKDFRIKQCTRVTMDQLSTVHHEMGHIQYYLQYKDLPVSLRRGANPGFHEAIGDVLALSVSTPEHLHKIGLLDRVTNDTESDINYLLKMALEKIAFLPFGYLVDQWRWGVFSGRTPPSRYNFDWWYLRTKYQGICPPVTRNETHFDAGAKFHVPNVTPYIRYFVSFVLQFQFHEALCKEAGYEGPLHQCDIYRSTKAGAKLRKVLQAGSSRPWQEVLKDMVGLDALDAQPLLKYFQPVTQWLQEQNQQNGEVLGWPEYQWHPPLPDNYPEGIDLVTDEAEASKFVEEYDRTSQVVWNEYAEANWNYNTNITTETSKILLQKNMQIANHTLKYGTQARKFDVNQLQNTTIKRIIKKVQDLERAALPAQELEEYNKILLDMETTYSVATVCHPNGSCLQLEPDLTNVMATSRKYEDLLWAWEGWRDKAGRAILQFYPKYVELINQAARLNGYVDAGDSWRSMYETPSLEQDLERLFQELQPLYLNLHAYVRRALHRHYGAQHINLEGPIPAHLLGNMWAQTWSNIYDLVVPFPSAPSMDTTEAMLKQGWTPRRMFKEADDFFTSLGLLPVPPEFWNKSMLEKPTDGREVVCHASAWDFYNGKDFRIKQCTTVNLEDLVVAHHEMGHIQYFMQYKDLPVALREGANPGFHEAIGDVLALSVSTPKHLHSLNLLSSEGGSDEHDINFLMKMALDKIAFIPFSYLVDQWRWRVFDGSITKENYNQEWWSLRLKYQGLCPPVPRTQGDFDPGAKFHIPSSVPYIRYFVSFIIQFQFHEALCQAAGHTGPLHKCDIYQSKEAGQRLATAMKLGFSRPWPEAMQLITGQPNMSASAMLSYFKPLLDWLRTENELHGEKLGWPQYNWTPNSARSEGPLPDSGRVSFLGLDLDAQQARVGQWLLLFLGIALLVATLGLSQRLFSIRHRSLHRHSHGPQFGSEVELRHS

[7] = system: peptide deformylase (Streptococcus pneumoniae); assay: Inhibitory activity against PDF isolated from Streptococcus pneumoniae
[8] = system: Pseudomonas aeruginosa; assay: In vitro antibacterial activity against Pseudomonas aeruginosa ATCC 27853.; type: functional
[9] = target: T2, Interstitial collagenase (Homo sapiens, UniProt P03956); assay: Inhibition of Matrix metalloprotease-1
T2 sequence (P03956 whole entry): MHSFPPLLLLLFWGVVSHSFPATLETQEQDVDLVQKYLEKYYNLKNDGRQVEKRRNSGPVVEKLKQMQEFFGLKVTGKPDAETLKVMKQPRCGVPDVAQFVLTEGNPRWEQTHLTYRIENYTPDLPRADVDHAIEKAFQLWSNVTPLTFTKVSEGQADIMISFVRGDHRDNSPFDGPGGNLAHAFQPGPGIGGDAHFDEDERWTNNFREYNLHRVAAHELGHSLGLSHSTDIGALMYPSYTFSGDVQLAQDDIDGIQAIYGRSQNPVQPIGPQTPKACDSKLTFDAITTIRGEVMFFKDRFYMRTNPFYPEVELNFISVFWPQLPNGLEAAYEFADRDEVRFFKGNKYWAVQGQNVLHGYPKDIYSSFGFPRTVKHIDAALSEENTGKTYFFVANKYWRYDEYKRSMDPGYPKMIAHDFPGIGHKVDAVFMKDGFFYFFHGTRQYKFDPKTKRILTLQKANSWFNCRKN

[10] = system: Streptococcus pneumoniae; assay: In vitro antibacterial activity against Streptococcus pneumoniae 1/1 (penicillin resistant).; type: functional
[11] = system: Bacillus subtilis; assay: In vitro antibacterial activity against Bacillus subtilis ATCC 585969.; type: functional
[12] = target: T3, Neprilysin (Rattus norvegicus, UniProt P07861); assay: Inhibitory activity against neutral endopeptidase enzyme (NEP).
T3 sequence (P07861 whole entry): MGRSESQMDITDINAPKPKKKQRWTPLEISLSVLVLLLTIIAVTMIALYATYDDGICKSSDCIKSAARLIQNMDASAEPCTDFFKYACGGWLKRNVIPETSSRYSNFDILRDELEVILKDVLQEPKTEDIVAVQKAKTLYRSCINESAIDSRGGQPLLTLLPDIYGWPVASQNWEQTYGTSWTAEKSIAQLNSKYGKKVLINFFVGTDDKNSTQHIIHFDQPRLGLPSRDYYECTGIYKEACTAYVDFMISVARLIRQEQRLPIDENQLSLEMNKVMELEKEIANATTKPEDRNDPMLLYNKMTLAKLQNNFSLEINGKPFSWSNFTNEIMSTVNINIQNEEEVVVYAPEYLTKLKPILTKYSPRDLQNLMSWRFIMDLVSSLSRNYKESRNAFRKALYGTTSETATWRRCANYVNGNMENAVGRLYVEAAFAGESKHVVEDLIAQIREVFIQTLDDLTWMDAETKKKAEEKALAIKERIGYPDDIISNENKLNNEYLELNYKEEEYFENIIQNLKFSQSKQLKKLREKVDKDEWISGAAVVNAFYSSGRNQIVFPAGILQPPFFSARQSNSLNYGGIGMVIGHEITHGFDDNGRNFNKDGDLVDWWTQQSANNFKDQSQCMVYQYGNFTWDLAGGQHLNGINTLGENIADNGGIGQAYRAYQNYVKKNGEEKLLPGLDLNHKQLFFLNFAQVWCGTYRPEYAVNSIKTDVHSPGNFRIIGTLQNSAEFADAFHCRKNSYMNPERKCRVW

[13] = target: T4, Endothelin-converting enzyme 1 (Homo sapiens, UniProt P42892); assay: Inhibitory activity against Endothelin-converting enzyme 1
T4 sequence (P42892 whole entry): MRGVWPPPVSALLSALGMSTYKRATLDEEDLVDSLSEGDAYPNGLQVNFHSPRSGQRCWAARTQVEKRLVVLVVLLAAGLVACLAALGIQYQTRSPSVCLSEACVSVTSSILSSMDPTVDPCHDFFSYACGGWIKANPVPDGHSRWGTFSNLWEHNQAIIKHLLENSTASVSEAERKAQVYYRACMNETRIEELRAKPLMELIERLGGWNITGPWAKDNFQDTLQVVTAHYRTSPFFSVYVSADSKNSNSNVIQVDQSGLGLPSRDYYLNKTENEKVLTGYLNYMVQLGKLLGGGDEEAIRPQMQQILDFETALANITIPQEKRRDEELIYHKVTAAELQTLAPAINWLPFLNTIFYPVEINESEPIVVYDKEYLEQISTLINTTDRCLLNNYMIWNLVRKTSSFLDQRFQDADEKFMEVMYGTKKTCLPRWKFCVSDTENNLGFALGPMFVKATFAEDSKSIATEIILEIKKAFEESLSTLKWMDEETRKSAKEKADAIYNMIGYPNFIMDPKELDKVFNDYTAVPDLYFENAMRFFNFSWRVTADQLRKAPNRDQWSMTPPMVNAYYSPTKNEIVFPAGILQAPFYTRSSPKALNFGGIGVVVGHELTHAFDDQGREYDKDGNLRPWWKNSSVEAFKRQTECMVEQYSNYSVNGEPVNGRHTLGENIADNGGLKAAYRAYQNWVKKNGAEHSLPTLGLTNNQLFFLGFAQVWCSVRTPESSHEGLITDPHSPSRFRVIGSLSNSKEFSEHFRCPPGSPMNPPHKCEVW

[14] = system: Streptococcus pneumoniae; assay: In vitro antibacterial activity against Streptococcus pneumoniae ATCC 49619.; type: functional
[15] = system: Enterococcus faecium; assay: In vitro antibacterial activity against Enterococcus faecium vanA E25_1.; type: functional
[16] = system: Enterococcus faecalis; assay: In vitro antibacterial activity against Enterococcus faecalis ATCC 29212.; type: functional
[17] = system: Mycoplasmoides pneumoniae; assay: In vitro antibacterial activity against Mycoplasma pneumoniae ATCC 29342.; type: functional
[18] = system: Staphylococcus aureus; assay: In vitro antibacterial activity against Staphylococcus aureus ATCC 25923.; type: functional
[19] = system: Stenotrophomonas maltophilia; assay: In vitro antibacterial activity against Stenotrophomonas maltophilia 1AC739.; type: functional
[20] = system: Escherichia coli; assay: In vitro antibacterial activity against Escherichia coli ATCC 25922.; type: functional
[21] = system: Chlamydia pneumoniae; assay: In vitro antibacterial activity against Chlamydia pneumoniae AR-39.; type: functional
[22] = target: Collagenase 3 (Homo sapiens, UniProt P45452); assay: Inhibition of Matrix metalloprotease-13
[23] = target: T3, Neprilysin; assay: Inhibitory activity against endopeptidase enzyme (NEP).
[24] = target: Macrophage metalloelastase (Homo sapiens, UniProt P39900); assay: Inhibition of human Matrix metalloprotease-12
Sequence of Macrophage metalloelastase (P39900 whole entry): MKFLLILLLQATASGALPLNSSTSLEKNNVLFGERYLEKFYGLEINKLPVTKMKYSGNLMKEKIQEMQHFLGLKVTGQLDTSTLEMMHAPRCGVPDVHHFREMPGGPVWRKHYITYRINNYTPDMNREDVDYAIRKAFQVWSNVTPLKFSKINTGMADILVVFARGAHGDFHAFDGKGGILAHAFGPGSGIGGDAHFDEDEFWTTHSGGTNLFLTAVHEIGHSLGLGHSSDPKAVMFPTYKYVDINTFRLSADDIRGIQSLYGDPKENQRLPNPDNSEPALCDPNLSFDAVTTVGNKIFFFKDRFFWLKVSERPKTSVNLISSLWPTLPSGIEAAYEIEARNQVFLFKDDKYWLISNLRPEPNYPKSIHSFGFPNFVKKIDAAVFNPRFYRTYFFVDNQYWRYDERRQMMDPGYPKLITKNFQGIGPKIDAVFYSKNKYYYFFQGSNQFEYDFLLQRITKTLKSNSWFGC

CCCCC(CC(=O)NO)S(=O)(=O)c1ccc(NC(C)=O)cc1 (configuration not stated)
MIC [1]: 1 µg/mL (≈ 2.92 µM) | IC50 [2]: 0.011 µM | MIC [3]: 16 µg/mL (≈ 46.7 µM)

CC(CC(=O)NO)S(=O)(=O)c1ccccc1 (configuration not stated)
MIC [1]: > 32 µg/mL | MIC [3]: > 32 µg/mL

CCCCC(CC(=O)NO)S(=O)(=O)c1ccc(OC)cc1 (configuration not stated)
MIC [1]: 0.5 µg/mL (≈ 1.59 µM) | IC50 [2]: 0.031 µM | MIC [3]: 16 µg/mL (≈ 50.7 µM)

O=C(CC(c1ccc2c(c1)OCO2)S(=O)(=O)c1ccccc1)NO (configuration not stated)
MIC [1]: 1 µg/mL (≈ 2.86 µM) | MIC [3]: 16 µg/mL (≈ 45.8 µM)

CCCCC(CC(=O)NO)S(=O)(=O)c1ccc(Br)cc1 (configuration not stated)
MIC [1]: 2 µg/mL (≈ 5.49 µM) | MIC [3]: 16 µg/mL (≈ 43.9 µM)

CCCCC(CC(=O)NO)S(=O)(=O)c1cccc(OC)c1 (configuration not stated)
MIC [1]: 2 µg/mL (≈ 6.34 µM) | IC50 [2]: 0.086 µM | MIC [3]: 16 µg/mL (≈ 50.7 µM)

CCCCC(CC(=O)NO)[S+]([O-])c1ccccc1 (configuration not stated)
MIC [1]: < 0.25 µg/mL | MIC [3]: 1 µg/mL (≈ 3.71 µM) | IC50 [4]: 0.046 µM | MIC [5]: 1 µg/mL (≈ 3.71 µM) | IC50 [6]: > 100 µM | IC50 [7]: 0.24 µM | MIC [8]: > 128 µg/mL | IC50 [9]: 0.093 µM | MIC [10]: 64 µg/mL (≈ 238 µM) | MIC [11]: 0.25 µg/mL (≈ 0.928 µM) | IC50 [12]: 2.6 µM | IC50 [13]: > 100 µM | MIC [14]: 32 µg/mL (≈ 119 µM) | MIC [15]: > 128 µg/mL | MIC [16]: > 128 µg/mL | MIC [17]: 0.25 µg/mL (≈ 0.928 µM) | MIC [18]: 16 µg/mL (≈ 59.4 µM) | MIC [19]: < 0.25 µg/mL | MIC [20]: 32 µg/mL (≈ 119 µM) | MIC [21]: 0.25 µg/mL (≈ 0.928 µM)

CCCC[C@@H](C(O)C(=O)NO)[S+]([O-])c1ccccc1 (some centres not stated)
MIC [1]: 4 µg/mL (≈ 14 µM) | MIC [3]: 32 µg/mL (≈ 112 µM)

CCCC[C@H](C(O)C(=O)NO)[S+]([O-])c1ccccc1 (some centres not stated)
MIC [1]: < 0.06 µg/mL | MIC [3]: 1 µg/mL (≈ 3.5 µM)

O=C(CC(c1ccccc1)S(=O)(=O)c1ccccc1)NO (configuration not stated)
MIC [1]: 8 µg/mL (≈ 26.2 µM) | IC50 [2]: 0.16 µM | MIC [3]: 32 µg/mL (≈ 105 µM)

CCCC[C@@H](CC(=O)NO)S(=O)(=O)c1ccccc1
MIC [1]: 16 µg/mL (≈ 56.1 µM) | MIC [3]: > 128 µg/mL | IC50 [22]: 0.018 µM | IC50 [6]: > 100 µM | IC50 [9]: 0.3 µM | IC50 [13]: > 100 µM | IC50 [23]: 15 µM | IC50 [24]: 0.009 µM

CCCCC[C@H](CC(=O)NO)C(=O)N[C@H](C(=O)N1CCC[C@H]1CO)C(C)C [ACTINONIN]
MIC [1]: < 0.06 µg/mL | MIC [3]: 1 µg/mL (≈ 2.59 µM) | MIC [5]: 2 µg/mL (≈ 5.19 µM) | MIC [8]: > 128 µg/mL | MIC [10]: 128 µg/mL (≈ 332 µM) | MIC [11]: 8 µg/mL (≈ 20.8 µM) | MIC [14]: 32 µg/mL (≈ 83 µM) | MIC [15]: > 128 µg/mL | MIC [16]: > 128 µg/mL | MIC [17]: > 64 µg/mL | MIC [18]: 32 µg/mL (≈ 83 µM) | MIC [19]: 16 µg/mL (≈ 41.5 µM) | MIC [20]: 64 µg/mL (≈ 166 µM) | MIC [21]: 4 µg/mL (≈ 10.4 µM)

CCCCC(CC(=O)NO)[S+]([O-])c1ccc(Br)cc1 (configuration not stated)
MIC [1]: < 0.125 µg/mL | IC50 [2]: 0.21 µM | MIC [3]: 1 µg/mL (≈ 2.87 µM)

From ChEMBL document CHEMBL1133694, “Hydroxamic acid derivatives as potent peptide deformylase inhibitors and antibacterial agents” (J Med Chem, 2000)
